# Test results: patent US20110212053A1, “PHOSPHATIDYLINOSITOL 3 KINASE INHIBITORS” (priority 2008, published 2011)
# Several values for one entry are separate records, joined by “and”; a condition that tells them apart may be missing. Identical values can stand only once.
# Legend:
# PI3Kα = target: T1, PI3Kα (Homo sapiens, UniProt P42336); assay: KinaseGLO luminescent PI3-kinase assay, PI3Kα; assay type: biochemical
# T1 construct: purchased Invitrogen or Millipore
# Description: (§1) Compound Preparation: KinaseGLO assay: 30× stocks of inhibitors were prepared in DMSO. A 10 mM master stock was prepared and all other stocks were generated by serial dilution of this master stock in DMSO. The final concentration of DMSO in the kinase reaction was 3.3% (v/v).
# PI3-Kinase Assay: The KinaseGLO® Luminescent Kinase Assay (Promega) is a luciferin-luciferase based luminescent assay that utilizes a proprietary thermostable luciferase to quantify the ATP remaining in a solution after a kinase reaction. The luminescent signal generated using KinaseGLO® directly correlates with ATP concentration, and therefore inversely correlates with kinase activity.
# PI3K enzyme sample was thawed and diluted to 100 ng/μL in enzyme dilution buffer (50 mM HEPES, pH7.5, 3.0 mM MgCl2, 1.0 mM EGTA) and stored on ice. PI3Kα enzyme was diluted to a final concentration of 1 ng/μL in reaction buffer (for PI3Kα; 50 mM HEPES, pH7.5, 100 mM NaCl, 2.0 mM DTT, 3.0 mM MgCl2, 1.0 mM EGTA, 10 μM ATP) and gently mixed. 25 μL of this kinase reaction was then aliquoted into test wells in a Microfluor2 white 96-well plate (Thermo Scientific). As a preincubation step, 1 μl of 30× compound dilutions was added to the appropriate test wells to generate a ten point dose-response ranging from 0.0 μM-10 μM inhibitor. The enzyme-inhibitor mixture was then incubated for 30 minutes at 4° C. After this preincubation, […] (50 μM final concentration) was added to each test well to initiate the kinase reaction. Reactions were incubated at room temperature for 2 hours with moderate shaking. The KinaseGLO® luminescent reagent (Promega) was prepared according to the manufacturer's instructions. Both the KinaseGLO® buffer and substrate were allowed to thaw and equilibrate at room temperature for two hours prior to mixing and use. The PI3-kinase reaction was terminated by the addition of 30 μL of reconstituted KinaseGLO® reagent to each reaction well and then incubated in the dark for 10 minutes at room temperature. Luminescent signal was detected using a SpectraMax M5 (Molecular Devices). Maximal luminescence (no PI3K activity/maximal PI3K inhibition) was determined from reaction buffer plus SC-PI substrate only controls. The minimal signal (maximal PI3K activity) was determined by the 0.0 μM compound (DMSO only) control. IC50 values were calculated via non-linear regression using GraphPad Prism data analysis software.
# Compounds were assayed against the Class I PI3Kα, PI3Kβ, PI3Kγ, PI3Kδ, PI3Kα(H1047R) and PI3Kα(E545K) in the KinaseGLO assay as described in Example 2, and against the Class IV PI3K mTOR in the radiometric assay. IC50 values (μM) were determined using 8-10 point half-log dose dilutions and calculated via nonlinear regression analysis using Graphpad Prism data analysis software.
# MELK = target: T2, MELK (Homo sapiens, UniProt Q14680); assay: MELK kinase assay (KinaseGLO); assay type: biochemical
# T2 construct: purchased Invitrogen or Millipore
# Description: as §1
# MELK kinase assay: The ability of compounds to inhibit MELK was also determined using the KinaseGLO assay. Briefly, MELK enzymes was thawed and diluted to a final concentration of 2.64 ng/μL in reaction buffer (50 mM HEPES, pH7.5, 100 mM NaCl, 2.0 mM DTT, 3.0 mM MgCl2, 1.0 mM EGTA, 10 μM ATP). 19 μl of this kinase reaction mixture was aliquoted into test wells (50 ng MELK/well) in a Microfluor2 white 96-well plate (Thermo Scientific). As a preincubation step, 1 μl of 30× compound dilutions was added to the appropriate test wells to generate a ten point dose-response ranging from 0.0 μM-10 μM inhibitor, and incubated for 15 minutes at 4° C. The reaction was started by addition of 10 μL of 150 μM ZIPtide peptide substrate resuspended in reaction buffer (50 μM final concentration of ZIPtide). Reactions were incubated at room temperature for 2 hours prior to addition of 30 μL of KinaseGLO reagent and development as described. Maximal luminescence (no MELK activity/maximal MELK inhibition) was determined from reaction buffer plus peptide substrate only controls. The minimal signal (maximal MELK activity) was determined by the 0.0 μM compound (DMSO only) control. IC50 values were calculated via non-linear regression using GraphPad Prism data analysis software. […]
# (§2) Compounds of the invention were assayed against the select kinases using the KinaseGLO assay (MELK) or the radiometric assay (PIM, TRKC, PDGFRα(D842V), MNK1 and mTOR). IC50 values were determined using 8-10 point half-log dose dilutions and calculated via nonlinear regression analysis using Graphpad Prism data analysis software.
# TRKC = TRKC (Homo sapiens, UniProt Q16288); assay: Radiometric HotSpot kinase assay, TRKC; assay type: biochemical; conditions: 1 μM compound, 10 μM ATP
# Description: (§3) Kinase Profiling: The inhibitory activity of the PI3K inhibitor compounds of the invention against 250 protein kinases was determined via the radiometric HotSpot Kinase Profiling (Reaction Biology Corporation, Malvern, Pa.). Compounds were profiled at a final concentration of 1 μM compound against recombinant protein kinases in the presence of 10 μM ATP and data were expressed as percent inhibition. IC50 and/or percent inhibition at 1 μM compound values were determined for select compounds against a subset of kinases (MELK, MNK1, MNK2, mTOR, PIM-1. TRKC, and PDGFRα(D842V)).
# as §2
# PIM-1 = PIM-1 (Homo sapiens, UniProt P11309); assay: Radiometric HotSpot kinase assay, PIM-1; assay type: biochemical; conditions: 1 μM compound, 10 μM ATP
# Description: as §3, §2
# PDGFRα(D842V) = PDGFRα(D842V) (Homo sapiens, UniProt P16234, D842V); assay: Radiometric HotSpot kinase assay, PDGFRα(D842V); assay type: biochemical
# Description: as §3, §2
# [1] = test system: HCT116 colorectal carcinoma cells; assay: Caspase-GLO 3/7 assay, HCT116; assay type: cell-based; conditions: Homo sapiens, HCT-116, 24 hours, CaspaseGLO
# Description: Caspase-GLO 3/7 Assay: To determine the ability of the PI3K inhibitor compounds of the invention to induce programmed cell death (apoptosis), caspase activity was monitored as an indicator of apoptosis. Human HCT116 colorectal carcinoma and PANC-1 pancreatic carcinoma cells were plated at 2000-8000 cells per well in white 96-well microplates and allowed to attach overnight. The following day the medium was removed by aspiration and the cells were washed once with 200 μL of DMEM containing 0.5% (v/v) FBS (assay medium). The cells were then incubated in 100 μL of assay medium containing increasing concentrations of the PI3K inhibitor compounds (from 0.003 μM to 10.0 μM in half-log dilutions) for 24 to 72 hours. Caspase activity was detected using the Caspase-GLO 3/7 assay (Promega) according to the manufacturer's instructions and measured on a Spectramax M5 multi-detection microplate reader (Molecular Devices Corp.). EC50 values were calculated via non-linear regression using GraphPad Prism data analysis software.
# HCT116 cells were treated overnight with a pyrazoloquinoline compound of the invention, or with a commercially available dual PI3K(α,β,δ,γ)/mTOR inhibitor, or with a commercially available PI3K(α,β,δ,γ)-only inhibitor at concentrations of 0.5, 1.0 and 5.0 μM.
# TRKC, sequence (Q16288 32-839): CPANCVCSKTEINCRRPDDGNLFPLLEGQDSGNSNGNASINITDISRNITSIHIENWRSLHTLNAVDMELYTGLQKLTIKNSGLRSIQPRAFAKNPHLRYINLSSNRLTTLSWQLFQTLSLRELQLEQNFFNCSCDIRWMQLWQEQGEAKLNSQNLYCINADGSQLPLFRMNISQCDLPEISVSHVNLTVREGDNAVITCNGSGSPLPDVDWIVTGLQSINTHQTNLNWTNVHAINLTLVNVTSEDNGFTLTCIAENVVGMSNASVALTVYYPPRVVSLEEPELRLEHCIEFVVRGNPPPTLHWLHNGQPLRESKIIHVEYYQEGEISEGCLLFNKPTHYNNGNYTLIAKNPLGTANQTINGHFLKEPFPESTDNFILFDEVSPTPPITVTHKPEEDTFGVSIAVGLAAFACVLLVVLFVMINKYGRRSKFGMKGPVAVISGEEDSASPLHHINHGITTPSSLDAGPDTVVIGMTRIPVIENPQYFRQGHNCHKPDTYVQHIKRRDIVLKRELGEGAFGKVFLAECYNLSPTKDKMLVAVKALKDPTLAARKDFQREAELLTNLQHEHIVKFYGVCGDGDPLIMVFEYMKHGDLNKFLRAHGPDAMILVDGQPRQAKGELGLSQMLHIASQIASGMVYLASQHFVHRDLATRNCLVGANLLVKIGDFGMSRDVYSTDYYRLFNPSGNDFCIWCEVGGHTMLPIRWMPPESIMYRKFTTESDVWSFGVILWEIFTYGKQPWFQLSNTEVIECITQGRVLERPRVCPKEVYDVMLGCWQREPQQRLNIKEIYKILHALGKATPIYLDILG
# T2 sequence (Q14680 whole entry): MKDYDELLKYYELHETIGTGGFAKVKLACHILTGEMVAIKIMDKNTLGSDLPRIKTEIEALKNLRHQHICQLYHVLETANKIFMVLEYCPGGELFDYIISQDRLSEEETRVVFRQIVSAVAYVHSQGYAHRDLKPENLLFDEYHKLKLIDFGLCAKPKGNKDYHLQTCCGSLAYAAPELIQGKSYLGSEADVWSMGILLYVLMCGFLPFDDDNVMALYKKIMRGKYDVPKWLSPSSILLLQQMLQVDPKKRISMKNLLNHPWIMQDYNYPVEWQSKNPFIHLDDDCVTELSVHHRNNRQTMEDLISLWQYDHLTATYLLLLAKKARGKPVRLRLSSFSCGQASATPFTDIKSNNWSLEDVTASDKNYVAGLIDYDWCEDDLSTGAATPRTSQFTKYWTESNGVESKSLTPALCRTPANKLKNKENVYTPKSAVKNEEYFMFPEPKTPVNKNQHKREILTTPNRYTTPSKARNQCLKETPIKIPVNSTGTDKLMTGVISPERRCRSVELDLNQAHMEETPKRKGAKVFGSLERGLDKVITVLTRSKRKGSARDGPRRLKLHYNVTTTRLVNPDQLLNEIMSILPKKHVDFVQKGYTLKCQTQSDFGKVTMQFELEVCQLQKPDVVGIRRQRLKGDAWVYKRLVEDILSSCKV
# T1 sequence (P42336 whole entry): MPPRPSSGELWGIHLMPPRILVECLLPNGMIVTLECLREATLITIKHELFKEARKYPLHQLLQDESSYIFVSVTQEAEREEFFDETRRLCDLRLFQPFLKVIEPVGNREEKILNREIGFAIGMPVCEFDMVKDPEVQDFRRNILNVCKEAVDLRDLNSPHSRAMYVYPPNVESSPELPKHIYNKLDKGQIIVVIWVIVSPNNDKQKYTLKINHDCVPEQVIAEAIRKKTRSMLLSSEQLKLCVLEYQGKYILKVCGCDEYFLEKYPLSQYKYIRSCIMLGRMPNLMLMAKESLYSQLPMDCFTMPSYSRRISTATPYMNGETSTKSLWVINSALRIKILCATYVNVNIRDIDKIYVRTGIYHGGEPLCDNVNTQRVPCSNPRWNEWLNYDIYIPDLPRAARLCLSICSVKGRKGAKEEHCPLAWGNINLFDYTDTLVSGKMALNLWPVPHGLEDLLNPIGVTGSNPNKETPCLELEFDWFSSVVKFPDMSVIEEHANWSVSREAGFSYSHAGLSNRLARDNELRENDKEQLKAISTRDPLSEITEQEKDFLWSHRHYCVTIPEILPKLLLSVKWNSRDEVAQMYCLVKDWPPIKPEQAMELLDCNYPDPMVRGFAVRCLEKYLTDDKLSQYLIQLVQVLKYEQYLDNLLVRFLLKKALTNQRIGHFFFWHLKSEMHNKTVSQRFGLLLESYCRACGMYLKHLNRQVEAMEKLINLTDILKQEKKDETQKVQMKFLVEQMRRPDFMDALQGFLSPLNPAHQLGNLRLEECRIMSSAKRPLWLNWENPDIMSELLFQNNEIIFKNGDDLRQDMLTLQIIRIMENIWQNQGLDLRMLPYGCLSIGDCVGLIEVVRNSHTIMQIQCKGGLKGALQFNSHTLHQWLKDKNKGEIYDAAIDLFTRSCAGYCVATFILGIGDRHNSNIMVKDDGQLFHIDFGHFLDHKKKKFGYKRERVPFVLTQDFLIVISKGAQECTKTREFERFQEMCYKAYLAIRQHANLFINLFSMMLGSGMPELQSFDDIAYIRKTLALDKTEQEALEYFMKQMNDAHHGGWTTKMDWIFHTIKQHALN
# T1 sequence (P27986 whole entry partner): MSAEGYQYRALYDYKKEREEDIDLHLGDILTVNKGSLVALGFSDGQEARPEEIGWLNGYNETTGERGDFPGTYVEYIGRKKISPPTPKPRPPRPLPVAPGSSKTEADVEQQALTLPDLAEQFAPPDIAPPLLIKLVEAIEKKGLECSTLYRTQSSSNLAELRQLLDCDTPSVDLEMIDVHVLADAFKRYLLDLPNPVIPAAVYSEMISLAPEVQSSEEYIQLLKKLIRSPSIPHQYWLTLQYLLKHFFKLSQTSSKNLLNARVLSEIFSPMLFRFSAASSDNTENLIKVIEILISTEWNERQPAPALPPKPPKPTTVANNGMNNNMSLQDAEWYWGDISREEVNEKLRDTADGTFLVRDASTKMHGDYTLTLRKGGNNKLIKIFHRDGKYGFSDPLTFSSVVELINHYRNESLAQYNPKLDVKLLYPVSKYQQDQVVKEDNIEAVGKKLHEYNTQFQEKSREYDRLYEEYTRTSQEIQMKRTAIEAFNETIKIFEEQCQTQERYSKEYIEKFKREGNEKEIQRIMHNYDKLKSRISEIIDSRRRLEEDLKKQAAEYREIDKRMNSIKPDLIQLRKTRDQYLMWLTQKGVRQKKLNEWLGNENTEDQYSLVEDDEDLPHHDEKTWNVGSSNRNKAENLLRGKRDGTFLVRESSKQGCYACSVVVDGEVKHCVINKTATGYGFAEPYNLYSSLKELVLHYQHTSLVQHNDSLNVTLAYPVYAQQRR
# PDGFRα(D842V), sequence (P16234 24-1089 D842V): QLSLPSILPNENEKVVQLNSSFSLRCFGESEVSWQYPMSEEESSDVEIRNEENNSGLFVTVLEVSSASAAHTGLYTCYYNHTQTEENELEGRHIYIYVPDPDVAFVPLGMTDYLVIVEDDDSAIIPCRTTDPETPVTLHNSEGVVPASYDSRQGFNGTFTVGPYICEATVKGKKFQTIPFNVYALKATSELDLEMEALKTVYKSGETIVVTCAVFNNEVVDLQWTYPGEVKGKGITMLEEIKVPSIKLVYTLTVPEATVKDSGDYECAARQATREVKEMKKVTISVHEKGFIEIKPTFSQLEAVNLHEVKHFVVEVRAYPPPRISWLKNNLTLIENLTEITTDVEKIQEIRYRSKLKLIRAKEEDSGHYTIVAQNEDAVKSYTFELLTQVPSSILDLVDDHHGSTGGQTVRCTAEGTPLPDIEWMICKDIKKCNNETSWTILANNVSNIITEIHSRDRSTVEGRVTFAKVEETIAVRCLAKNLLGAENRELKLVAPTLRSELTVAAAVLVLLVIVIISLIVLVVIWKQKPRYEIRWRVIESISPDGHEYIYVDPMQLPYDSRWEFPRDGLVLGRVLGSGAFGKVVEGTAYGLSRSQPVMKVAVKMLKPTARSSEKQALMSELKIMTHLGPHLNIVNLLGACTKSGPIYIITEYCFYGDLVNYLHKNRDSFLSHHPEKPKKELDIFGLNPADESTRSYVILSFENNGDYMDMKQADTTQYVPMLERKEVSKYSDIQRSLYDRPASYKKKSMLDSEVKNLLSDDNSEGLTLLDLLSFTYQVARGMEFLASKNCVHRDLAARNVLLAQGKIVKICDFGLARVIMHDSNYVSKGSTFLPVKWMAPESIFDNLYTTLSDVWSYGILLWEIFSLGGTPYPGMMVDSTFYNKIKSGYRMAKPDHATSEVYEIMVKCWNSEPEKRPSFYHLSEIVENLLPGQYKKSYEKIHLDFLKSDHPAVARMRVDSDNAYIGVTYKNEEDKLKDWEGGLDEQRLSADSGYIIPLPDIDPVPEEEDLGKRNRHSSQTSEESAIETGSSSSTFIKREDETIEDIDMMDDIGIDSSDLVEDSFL
# PIM-1, sequence (P11309 whole entry): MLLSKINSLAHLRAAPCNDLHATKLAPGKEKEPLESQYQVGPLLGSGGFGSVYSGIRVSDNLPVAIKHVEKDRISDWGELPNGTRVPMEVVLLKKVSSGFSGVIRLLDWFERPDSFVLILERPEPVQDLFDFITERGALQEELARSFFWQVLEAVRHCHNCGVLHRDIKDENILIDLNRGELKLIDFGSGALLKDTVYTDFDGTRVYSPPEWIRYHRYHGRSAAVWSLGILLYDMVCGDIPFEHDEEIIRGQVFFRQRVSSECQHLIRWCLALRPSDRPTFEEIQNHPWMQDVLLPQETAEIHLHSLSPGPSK
compound,measurement,setting,value
"CC(C)(C#N)c1ccc(-c2n[nH]c3cnc4ccc(-c5cncnc5)cc4c23)cc1 [Compound 1108, 2-methyl-2-(4-(8-(pyrimidin-5-yl)-3H-pyrazolo[3,4-c]quinolin-1-yl)phenyl)propanenitrile]",IC50,PI3Kα,< 10 nM
same,IC50,MELK,12 to 20 nM and > 30 nM
same,inhibition at 1 µM,TRKC,> 97%
same,inhibition at 1 µM,PIM-1,60 to 85%
same,IC50,PDGFRα(D842V),> 100 nM
CC(C)(C#N)c1ccc(-c2n[nH]c3cnc4ccc(-c5ccn6ncnc6c5)cc4c23)cc1 [Compound 1111],IC50,PI3Kα,> 20 nM
same,IC50,MELK,20 to 30 nM
same,inhibition at 1 µM,TRKC,> 97%
same,inhibition at 1 µM,PIM-1,> 95%
"CC(C)(C#N)c1ccc(-c2n[nH]c3cnc4ccc(-c5cc(F)cc(F)c5)cc4c23)cc1 [Compound 1112, 2-(4-(8-(3,5-difluorophenyl)-3H-pyrazolo[3,4-c]quinolin-1-yl)phenyl)-2-methylpropanenitrile]",IC50,MELK,> 30 nM
same,inhibition at 1 µM,TRKC,≥ 75%
same,IC50,PDGFRα(D842V),> 100 nM
"CC(C)(C#N)c1ccc(-c2n[nH]c3cnc4ccc(-c5cccc(Cl)c5)cc4c23)cc1 [Compound 1113, 2-(4-(8-(3-chlorophenyl)-3H-pyrazolo[3,4-c]quinolin-1-yl)phenyl)-2-methylpropanenitrile]",IC50,MELK,> 30 nM
same,inhibition at 1 µM,TRKC,≥ 70%
same,inhibition at 1 µM,PIM-1,50 to 60%
same,IC50,PDGFRα(D842V),> 100 nM
"CC(C)(C#N)c1ccc(-c2n[nH]c3cnc4ccc(-c5ccc6c(c5)CC=N6)cc4c23)cc1 [Compound 1114, 2-(4-(8-(3H-indol-5-yl)-3H-pyrazolo[3,4-c]quinolin-1-yl)phenyl)-2-methylpropanenitrile]",IC50,PI3Kα,> 20 nM
same,IC50,MELK,> 30 nM
same,IC50,PDGFRα(D842V),> 100 nM
"COc1cccc(-c2ccc3ncc4[nH]nc(-c5ccc(C(C)(C)C#N)cc5)c4c3c2)c1 [Compound 1115, 2-(4-(8-(3-methoxyphenyl)-3H-pyrazolo[3,4-c]quinolin-1-yl)phenyl)-2-methylpropanenitrile]",IC50,MELK,> 30 nM
same,inhibition at 1 µM,TRKC,> 60%
same,inhibition at 1 µM,PIM-1,60 to 85%
same,IC50,PDGFRα(D842V),> 1000 nM
"CC(C)(C#N)c1ccc(-c2n[nH]c3cnc4ccc(-c5ccc(F)cc5)cc4c23)cc1 [Compound 1116, 2-(4-(8-(4-fluorophenyl)-3H-pyrazolo[3,4-c]quinolin-1-yl)phenyl)-2-methylpropanenitrile]",IC50,MELK,> 30 nM
same,inhibition at 1 µM,TRKC,≥ 75%
same,inhibition at 1 µM,PIM-1,60 to 85%
"COc1ccc(-c2ccc3ncc4[nH]nc(-c5ccc(C(C)(C)C#N)cc5)c4c3c2)cc1 [Compound 1117, 2-(4-(8-(4-methoxyphenyl)-3H-pyrazolo[3,4-c]quinolin-1-yl)phenyl)-2-methylpropanenitrile]",IC50,MELK,> 30 nM
same,inhibition at 1 µM,TRKC,> 50%
same,inhibition at 1 µM,PIM-1,60 to 85%
"COc1ccc(-c2ccc3ncc4[nH]nc(-c5ccc(C(C)(C)C#N)cc5)c4c3c2)cn1 [Compound 1118, 2-(4-(8-(6-methoxypyridin-3-yl)-3H-pyrazolo[3,4-c]quinolin-1-yl)phenyl)-2-methylpropanenitrile]",IC50,PI3Kα,< 10 nM
same,IC50,MELK,> 30 nM
same,IC50,PDGFRα(D842V),> 1000 nM
"CC(C)(C#N)c1ccc(-c2n[nH]c3cnc4ccc(-c5cccc(Nc6ccccn6)c5)cc4c23)cc1 [Compound 1120, 2-methyl-2-(4-(8-(3-(pyridin-2-ylamino)phenyl)-3H-pyrazolo[3,4-c]quinolin-1-yl)phenyl)propanenitrile]",IC50,PI3Kα,> 20 nM
"CC(C)(C#N)c1ccc(-c2n[nH]c3cnc4ccc(-c5cccc(Nc6ccncc6)c5)cc4c23)cc1 [Compound 1121, 2-methyl-2-(4-(8-(3-(pyridin-4-ylamino)phenyl)-3H-pyrazolo[3,4-c]quinolin-1-yl)phenyl)propanenitrile]",IC50,PI3Kα,> 20 nM
same,IC50,MELK,12 to 20 nM
same,inhibition at 1 µM,TRKC,> 97%
same,inhibition at 1 µM,PIM-1,> 95%
same,IC50,PDGFRα(D842V),> 100 nM
"Cc1cccc(-c2ccc3ncc4[nH]nc(-c5ccc(C(C)(C)C#N)cc5)c4c3c2)c1 [Compound 1123, 2-methyl-2-(4-(8-m-tolyl-3H-pyrazolo[3,4-c]quinolin-1-yl)phenyl)propanenitrile]",IC50,MELK,> 30 nM
same,inhibition at 1 µM,TRKC,> 60%
same,inhibition at 1 µM,PIM-1,50 to 60%
same,IC50,PDGFRα(D842V),> 1000 nM
"Cc1ccccc1-c1ccc2ncc3[nH]nc(-c4ccc(C(C)(C)C#N)cc4)c3c2c1 [Compound 1124, 2-methyl-2-(4-(8-o-tolyl-3H-pyrazolo[3,4-c]quinolin-1-yl)phenyl)propanenitrile]",IC50,MELK,> 30 nM
same,inhibition at 1 µM,TRKC,> 60%
"CC(C)(C#N)c1ccc(-c2n[nH]c3cnc4ccc(-c5ccccc5)cc4c23)cc1 [Compound 1125, 2-methyl-2-(4-(8-phenyl-3H-pyrazolo[3,4-c]quinolin-1-yl)phenyl)propanenitrile]",IC50,MELK,> 30 nM
same,inhibition at 1 µM,TRKC,≥ 75%
same,inhibition at 1 µM,PIM-1,60 to 85%
same,IC50,PDGFRα(D842V),> 1000 nM
"Cc1ccc(-c2ccc3ncc4[nH]nc(-c5ccc(C(C)(C)C#N)cc5)c4c3c2)cc1 [Compound 1126, 2-methyl-2-(4-(8-p-tolyl-3H-pyrazolo[3,4-c]quinolin-1-yl)phenyl)propanenitrile]",IC50,MELK,> 30 nM
CN[C@@H]1C[C@H]2O[C@@](C)([C@@H]1OC)n1c3ccccc3c3c4c(c5c6ccccc6n2c5c31)C(=O)NC4 [staurosporine],EC50,[1],7 nM
